Data on one molecule can be found in patent US20250270507A1, “METHODS FOR PRODUCING CARTILAGE AND BONES” (Murdoch Children's Research Institute, priority 2021, published 2025).

The subject of test [1] is iPSC-derived chondronoids (MCRIi019-A and MCRIi018-B). As to the kind of experiment: Chondronoid maturation to hypertrophy with T3. The class given is cell-based, human. How it is done:
Triiodothyronine (T3) is crucial for chondrocyte hypertrophy (Aghajanian et al., 2017) thus in some experiments differentiated chondrocytes were treated with 10 nM T3 (Sigma-Aldrich) for 10-21 days to induce chondrocyte hypertrophy. From day 20 (after 2 weeks of FGF2 treatment), differentiation/maturation continued in APEL2/5% PFHM (without FGF2) with medium replaced every 2-3 days. T3 was added when the pellets had consistent and even cartilage histology, which ranged between 4 and 6 weeks post-sclerotome chondrocyte differentiation. In some experiments, pellets were briefly treated with 0.25% trypsin/EDTA for 4 min at 37° C. with agitation to remove the small amount of non-cartilage tissue that occasionally remained on the surface of the chondrocyte pellets. These were allowed to recover in chondrocyte medium (APEL2/5% PFHM) for 1 week before analysis and/or T3 treatment and continued maturation.
(§1) Cultured and in vivo grafted pellet organoids were fixed overnight at 4° C. in Confix (Australian Biostain) neutral-buffered formalin, then […] washed in 70% ethanol, and paraffin-embedded. After fixing, some in vivo grafted pellets were washed in water for 10 minutes then decalcified in 14% EDTA, pH 7.4 at 4° C. for 5 days before embedding. Serial 5 μm sections cut from the pellet centers were mounted on Superfrost Plus slides (Menzel-Gläser) and heated at 55° C. overnight. Sections were treated with xylene to remove the paraffin wax and an ethanol series comprising 100%, 90%, 70%, 50% ethanol then water to rehydrate the sections. Sections were stained with toluidine blue to detect a cartilage proteoglycan matrix or safranin O/fast green for cartilage and bone following standard protocols. Osteogenic pellet sections were also stained with von Kossa to detect mineralization. Images were captured using a Leica DM 2000 LED microscope with Leica Application Suite (LAS) software version 4.9.0 or Zeiss Axio Imager Z2 with Zen 3.1 Blue Edition software.
Formalin fixed and paraffin-embedded sections were immunostained for collagen II (MAB8887; Sigma-Aldrich; 1:150 dilution), collagen I (LF68; Kerafast ENH018-FP; 1:100), collagen X (Cameron et al., 2015) (1:100), PRG4 (clone 9G3; Merck) (1:100) and Ku80 (Cell Signaling) (1:300). For collagen II staining, antigen retrieval used 2 mg/ml porcine pepsin (Sigma) freshly prepared in 1 M Tris/HCl, pH 2.0 for 30 minutes at 37° C., followed by digestion for 30 minutes at 37° C. with 0.2% hyaluronidase (Sigma-Aldrich) in PBS. Collagen X antigen retrieval involved heating to 60° C. in 10 mM Tris/1 mM EDTA/0.05% Tween-20, pH 9.0 (Tris/EDTA) for 30 min, cooling to room temperature for 30 minutes, followed by hyaluronidase digestion and collagen I and Ku80 staining followed antigen retrieval at 60° C. in Tris/EDTA as above. Sections to be stained with Ku80 were then permeabilized with 0.05% Triton X-100. Sections were blocked with 3% BSA in PBS for 1 hour at room temperature, then incubated with primary antibodies in 1% BSA in PBS for 16 hours at 4° C. Appropriate species specific Alexa Fluor 488 and 594 secondary antibodies (ThermoFisher) were diluted 1:200 in 1% BSA in PBS with 2.5 μg/ml DAPI, and sections incubated for 1 hour at room temperature. Slides were washed with PBS and coverslips mounted using Shandon Immumount (ThermoFisher). Images were captured as described above. For collagen X intracellular colocalization studies sections were treated with 0.2% hyaluronidase at 37° C. for 30 minutes then permeabilized with 0.05% Triton X-100. The collagen X antibody was used at 1:100, 58K (PA1-9000; ThermoFisher) at 1:50, GRP94 (PA5-18534; ThermoFisher) 1:200 and LAMP2 (ab25631; Abcam) 1:50. Images were captured on a Zeiss LSM900 Airyscan 2 confocal microscope with Zen 3.1 Blue Edition software. […]

Test [2] relates to MCRIi001-A-2 organoids. Description: Osteogenic differentiation conditions in a second iPSC line. The test is classed as cell-based, human. Particulars: 10 nM T3 for 14 days before osteogenic culture; both osteogenic conditions. Here is the method:
Hypertrophic chondrocytes can transdifferentiate into osteoblasts and osteocytes in vivo (Yang et al., 2014; Zhou et al., 2014). To recapitulate this later stage of endochondral bone formation in vitro, hypertrophic chondrocyte pellets in orbital culture were rinsed in PBS then cultured in DMEM, high glucose, GlutaMAX Supplement, pyruvate (ThermoFisher), 20% FBS (ThermoFisher), 10 mM β-glycerophosphate, 50 μg/ml ascorbic acid 2-phosphate, 50 μg/ml sodium ascorbate, 100 nM dexamethasone (osteogenic differentiation media) for up to three weeks. […] Media was replaced every 2-3 days.
as §1, with “Osteogenic pellet sections were also stained with von Kossa to detect mineralization. Images were captured using a Leica DM 2000 LED microscope with Leica Application Suite (LAS) software version 4.9.0 or Zeiss Axio Imager Z2 with Zen 3.1 Blue Edition software.” left out

The mark [3] stands for this setting: T3 from day 48 to day 69, RNAseq.

For `N[C@@H](Cc1cc(I)c(Oc2ccc(O)c(I)c2)c(I)c1)C(=O)O` [T3, Triiodothyronine], the “spontaneous maturation to hypertrophic chondrocytes” value in test [1] (T3 from day 48 to day 69) is “enhanced”. Besides, in test [1] (setting [3]), the “expression of canonical cartilage genes (COL2A1, COL9A1, COL11A1, SOX9, SOX6, SOX5)” value is on record as “downregulated” and the “expression of late hypertrophic cartilage markers (VEGFA, DMP1, HIF1A, MMP13, ALPL)” value is “enhanced expression”. Also, the “expression of ALPL, FOSL2, VEGFA, BMP7 and DMP1” value in test [1] (compared with spontaneous hypertrophy) was “only upregulated after stimulation”. Also, the “chondronoid appearance by histology and immunostaining” value in test [1] (day 69) is “appeared similar with and without T3”. The “expression of sentinel cartilage genes (COL11A1, COL9A1, COL9A2, COL9A3, EPYC, MATN1, LUM, COMP, EDIL3)” value in test [1] (day 69+T3, core matrisome RNAseq) was “downregulated”. The “von Kossa staining in organoids pre-treated v not pre-treated” value in test [2] was “more extensive and more intense von Kossa staining”.
